Data on one substance can be found in US7361643B2, “Methods for inhibiting angiogenesis” (University of Puerto Rico, priority 2000, dated 2008).

“Also recorded” adds a separate entry of the source.

In experiment [1] the test system is bovine adrenal medullary microvascular endothelial cells. Kind of experiment: Recovery of endothelial cells after tunicamycin treatment (parental line). The experiment is classed as cell-based. The procedure:
If the behavior of tunicamycin observed here is truly anti-angiogenic and is not due to cytotoxicity then cells must recover following a tunicamycin treatment that is shorter in duration, and the concentrations are moderate. […] On the other hand, the recovery was quantitative from a 24 hour exposure to tunicamycin at all concentrations (data not shown).

Experiment [2] relates to tunicamycin sensitive clone JMEC. Kind of experiment: Apoptosis and recovery in the tunicamycin sensitive cell clone. The experiment is classed as cell-based, bovine. The source says: To understand the precise molecular mechanism of tunicamycin induced apoptosis of capillary endothelial cells, a cell clone was isolated from the parental culture that was maintained in a serum-free media for six weeks following synchronization. The morphology of these cells and their growth profile appear quite different. For example, the shapes are more spindle-like, resembling Kaposi's Sarcoma lesions endothelial cells, as disclosed in FIORELLI et al., “Cytokines from Activated T Cells Induce Normal Endothelial Cells to Acquire the Phenotypic and Functional Features of AIDS-Kaposi's Sarcoma Spindle Cells”, J. Clin. Invest., 95:1723-1734 (1995), the disclosure of which is herein incorporated by reference in its entirety. The cells undergo two-population doubling in 2% (v/v) fetal bovine serum, differentiate in 5 days, and complete one cell cycle in approximately 56 hours (FIG. 4).
There was no recovery after exposing the cells to 1 μg/ml-10 μg/ml tunicamycin for 72 hours or more (not all data shown).

The test system of a further experiment is protein N-glycosylation. The following applies: control cells and isoproterenol-treated cells, BANERJEE et al. (1993); cited from earlier work.
The test system of experiment [3] is bovine adrenal medullary microvascular endothelial cells. Description: DNA laddering by agarose gel electrophoresis. The experiment is classed as cell-based. As to conditions: DNA from cells treated with 1 μg/ml tunicamycin for 32 hours.
Experiment [4] has the same test system. Description: Capillary endothelial cell growth and proliferation (cell count in hemacytometer). The experiment is classed as cell-based. The procedure: Cells in the amount of 2.0×10^4 were seeded per well in 24-well clusters in 1 ml complete EMEM containing 10% (v/v) serum and allowed to grow for 72 hours. Media were removed and the cells were washed twice with phosphate-buffer saline, pH 7.4 (PBS). Cells were synchronized by incubating for 48 hours in 2 mM hydroxyurea in serum-free EMEM with glutamine (2 mM) and one-third of penicillin-streptomycin used in a regular culture condition, followed by incubating 24 hours in serum-free EMEM, as discussed in CAO et al., “Modified Method of Mammalian Cell Synchronization Improves Yield and Degree of Synchronization”, Exp. Cell Res., 193:405-410 (1991), the disclosure of which is herein incorporated by reference in its entirety.
For proliferation assay, cells were trypsinized and counted in a hemacytometer. Viability of cells was determined by trypan blue (0.4% (v/v)) exclusion. Statistical analysis was carried out by StatView II software (Macintosh). Quantitation of cellular differentiation was carried out by observing under a Nikon AlphaShot inverted microscope, and counting the number of capillary lumen-like structures in five randomly selected fields per sample.
Synchronized cells, as described in Example 1, were cultured at 37° C. in complete EMEM containing fetal bovine serum (1% (v/v), 2% (v/v), or 10% (v/v), or complete EMEM with 2% (v/v) fetal bovine serum containing 1 ng/ml −100 ng/ml of bFGF/FGF-2, or containing 0.5 μg/ml to 5.0 μg/ml tunicamycin (lot number 10922120-07 from Boehringer-Mannheim, Indianapolis, Ind.). In each case, the cellular growth and proliferation was monitored by trypan blue exclusion, by counting the cell number, and by their ability to process through the cell cycle by flow cytometry.
Proliferation and Differentiation of Capillary Endothelial Cells: 2.0×10^4 cells were seeded per well in 24-well clusters in 1 ml complete EMEM containing 10% (v/v) serum and allowed to grow for 72 hours. Media were removed and the cells were washed twice with phosphate-buffer saline, pH 7.4 (PBS). […] Cells were routinely monitored by light microscopy. For proliferation assay, cells were trypsinized and counted in a hemacytometer. Viability of cells was determined by trypan blue (0.4% (v/v)) exclusion. […] Quantitation of cellular differentiation was carried out by observing under a Nikon AlphaShot inverted microscope, and counting the number of capillary lumen-like structures in five randomly selected fields per sample. The results were expressed as percent of its corresponding control after normalization of cell numbers. Analysis of Cell Cycle by Flow Cytometry: Assessment of the cell cycle was determined by propidium iodide staining of fixed cell nuclei followed by flow cytometry in a FacSort (Beckton Dickinson) according to the method of Krishan (1975) as modified by Vindelov (1977), as discussed in KRISHAN, “Rapid Flow Cytometric Analysis of Mammalian Cell Cycle by Propidium Iodide Staining”, J. Cell Biol. 66:188-195 (1975); and VINDELOV, “Flow Cytometric Analysis of Nuclear DNA in Cells from Solid Tumors and Cell Suspensions”, Virchows Arch (B), 24:227-231 (1977), the disclosures of which are herein incorporated by reference in their entireties. […]

Where [5] appears, read: 1 μg/ml tunicamycin for 48 hours.
Setting [6] is: 10 μg/ml tunicamycin for 48 hours.

In the case of tunicamycin, in experiment [1] (10 ng/ml tunicamycin for 48 hours), the “recovery of cells in 5 days” value was “full recovery”. Besides, the recovery of cells entry is recorded as “approximately 40%” in experiment [1] (setting [5]); 12% in experiment [1] (setting [6]); “quantitative” in experiment [1] (24 hour exposure to tunicamycin at all concentrations (data not shown)); “never recovered” in experiment [1] (tunicamycin for 72 hours or longer at 1 μg/ml or 10 μg/ml); “no recovery” in experiment [2] (1 μg/ml-10 μg/ml tunicamycin for 72 hours or more). Besides, the “concentration for apoptosis less than needed for parental cells” value in experiment [2] (10 ng/ml in clone versus parental cells) was 100 fold. Further, the “cells recovered in 5 days” value was “approximately 60%” in experiment [2] (10 ng/ml tunicamycin for 24 hours) and “recovered similarly” in experiment [2] (setting [5]). The “apoptosis of the sensitive clone” value in experiment [2] (10 ng/ml tunicamycin, 32 hours) is “undergoes apoptosis”. The cells recovered result in experiment [2] (setting [6]) is reported as “less than 20%”. In the experiment on protein N-glycosylation, the glycosylation result was “reduced glycosylation”. In experiment [3], the DNA laddering result is recorded as “appearance of laddering”. Also, in experiment [4] (1 μg/ml tunicamycin, 2% (v/v) serum, monitored up to 5 days), the “effect on cell number / proliferation” value was “reduced the cell proliferation; also recorded: number of cells started declining; also recorded: started declining, and almost disappeared”. In experiment [4] (tunicamycin 0.5-5.0 μg/ml), the “reversibility of growth reduction” value is “reversible”.
